Laboratory results as given in patent publication US10188671B2, “Boron-dipyrrin complex and medicament containing the same” (JAPAN SCIENCE AND TECHNOLOGY AGENCY, priority 2015, dated 2019).

Experiments:
[1] = Optical properties in methanol; assay type: physicochemical
Description: The optical properties (in methanol) of compounds 2 to 4 synthesized were determined (Table 1). The compounds 2 to 4 each have maximum absorption at a wavelength at or near 500 nm and emit fluorescence at 509 nm. It was observed that introduction of a perfluoroalkyl group caused some decreases in light absorption coefficients, but little change in their fluorescence quantum yield.

[2] = Photostability under light irradiation (500 nm, methanol); assay type: physicochemical; conditions: methanol solution, light of 500 nm, 37° C., FIG. 2
Description: Next, a methanol solution containing each of compounds 2 to 4 was irradiated with light of 500 nm, and incubated at 37° C. Then, a change in the time course of the absorbance at the maximum light absorption wavelength was measured to compare their photostability (FIG. 2). […] By contrast, compounds 3 and 4, having a perfluoroalkyl group, took 2 hours or longer until complete photofading. […] Reaction with singlet oxygen seems to be primarily responsible for the photofading under visible light irradiation. So, the photostability of the present compounds was considered from the viewpoint of the reactivity with singlet oxygen. First, the HOMO/LUMO levels of compounds 2 to 4 were calculated in accordance with a DFT algorithm (FIG. 3). […] As the HOMO level increases, the compounds are more susceptible to oxygenation by singlet oxygen. Thus, this calculation results agree with the results of the photostability test. […] This reflects the fact that the maximum absorption wavelength is unchanged.

[3] = Absorption spectrum measurement (Test Example 3); assay type: physicochemical; conditions: for shift of maximum absorption wavelength to the long-wavelength side: 8 vs compound 9, 11 vs F on boron, 12 with R^6 iodine; for Absorbance λmax: Table 2
Description: Each absorption spectrum was measured (Table 2). The maximum absorption wavelength of compound 8, in which the dimethylamino phenyl group of compound 9 was changed to a julolidine group, was shifted to the long-wavelength side by 30 nm than that of compound 9. […] The maximum absorption wavelength of compound 12, in which R^6 was iodine, was shifted to the long-wavelength side by 20 nm. This allowed the compound to be efficiently excited by light with a longer wavelength of over 650 nm. In the cases of the carboxyl group- or sulfonic acid group-substituted tetrahydroquinoline derivatives (compounds 13 to 16) so as to introduce a water-soluble substituent, the absorption wavelength was shifted to the short-wavelength side by about 10 nm than that of the julolidine-substituted derivative. It can be deduced from the above results that as the lone electron pair of the nitrogen atom is arranged more stably on the same plane as that of the benzene ring due to the condensed ring structure of the julolidine or tetrahydroquinoline, the absorption wavelength tends to be shifted more to the long-wavelength side.

[4] = target: T1, Aβ1-42 (Homo sapiens, UniProt P05067); assay: In vitro Aβ1-42 oxygenation in phosphate buffer under 595 nm light, MALDI-TOF MS; assay type: biochemical; conditions: for Aβ1-42 oxygenation activity / rate of oxygenation of Aβ1-42: phosphate buffer pH 7.4, 37° C., light at 595 nm, FIG. 5
Description: (1) To check whether or not the compounds synthesized actually had Aβ oxygenation activity, in vitro oxygenation experiments were carried out using Aβ1-42 as a substrate. Compound 12 (20 μM) was added to a phosphate buffer solution (pH 7.4) containing Aβ1-42 (20 μM), and the mixture was incubated at 37° C. under LED light irradiation (at a wavelength of 595 nm). Then, a mass spectrometer (MALDI-TOF MS) was used to follow the reaction. Before the light irradiation, native Aβ1-42 and Na^+ adducts were primarily observed. […] (2) The Aβ1-42 oxygenation activities of compounds 8, 11, and 12 were compared (FIG. 5). First, 0.1% TFA aqueous solution containing o-acyliso-Aβ1-42 was diluted with a phosphate buffer solution (PB) (10 mM, pH 7.4) to prepare a native Aβ1-42 solution. To the resulting solution was added a DMSO catalyst stock solution (1.0 M). While incubated at 37° C., the mixture was irradiated with light at 595 nm. […] The heavy metal effect seems to enhance the efficiency of generating singlet oxygen.

[5] = test system: angiotensin IV (AT-4), met-enkephalin (ME), and somatostatin (Sat); assay: Aβ peptide selectivity test: oxygenation of non-amyloid model peptides; assay type: biochemical; conditions: same oxygenation conditions as for Aβ1-42, FIG. 9
Description: (§1) Compound 14 was used to investigate whether or not a compound of the present invention was able to selectively oxygenate Aβ. First, compound 14 (20 μM) was added to phosphate buffer solutions (pH 7.4) each containing Aβ1-42 (20 μM), angiotensin IV (20 μM) or a methionine enkephalin (20 μM), which solutions had been pre-incubated for 3 hours. The mixtures were incubated at 37° C. for 30 min under LED light irradiation (at a wavelength of 595 nm). Then, a mass spectrometer (MALDI-TOF MS) was used to follow the reaction. Three model peptides having a residue capable of being oxygenated were selected, including angiotensin IV (AT-4), met-enkephalin (ME), and somatostatin (Sat). These three peptides were subjected to the same oxygenation conditions as for Aβ1-42 (FIG. 9).

[6] = target: T1, Aβ1-42; assay: Aβ peptide selectivity test: oxygenation of Aβ1-42; assay type: biochemical; conditions: 20 μM, pH 7.4, pre-incubated 3 hours, 37° C., 30 min, LED 595 nm, FIG. 9
Description: as §1

T1 sequence (P05067 672-713 limits assumed): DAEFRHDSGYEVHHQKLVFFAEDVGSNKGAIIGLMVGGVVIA

| Absorbance λmax [1] [nm] | Emission λmax [1] [nm] | Φfl (fluorescence quantum yield) [1] | ϵ (light absorption coefficient) [1] [M⁻¹ cm⁻¹] | shift of maximum absorption wavelength to the long-wavelength side [3] | Absorbance λmax [3] [nm] | SMILES | Aβ1-42 oxygenation activity [4] | other results |
| --- | --- | --- | --- | --- | --- | --- | --- | --- |
| 502 | 509 | 0.80 | 81400 |  |  | CC1=CC(C)=[N+]2C1=Cc1c(C)cc(C)n1[B-]2(F)F [Compound 2, reference compound] |  | time to substantial photofading [2]: about 30 min |
| 502 | 509 | 0.80 | 74000 |  |  | CC1=CC(C)=[N+]2C1=Cc1c(C)cc(C)n1[B-]2(F)C(F)(F)F (stereo not drawn) [Compound 3] |  |  |
| 503 | 509 | 0.79 | 72600 |  |  | CC1=CC(C)=[N+]2C1=Cc1c(C)cc(C)n1[B-]2(F)C(F)(F)C(F)(F)F (stereo not drawn) [Compound 4] |  |  |
|  |  |  |  | 30 nm | 639 | CC1=CC(C)=[N+]2C1=Cc1c(C)cc(/C=C/c3cc4c5c(c3)CCCN5CCC4)n1[B-]2(F)F [Compound 8] | helped oxygenate Aβ1-42 under the light irradiation |  |
|  |  |  |  | almost no observable change | 640 | CC1=CC(C)=[N+]2C1=Cc1c(C)cc(/C=C/c3cc4c5c(c3)CCCN5CCC4)n1[B-]2(F)C(F)(F)F (stereo not drawn) [Compound 11] | helped oxygenate Aβ1-42 under the light irradiation | rate of oxygenation of Aβ1-42 [4]: faster oxygenation rate than the compounds 8 |
|  |  |  |  | 20 nm | 660 | CC1=C(I)C(C)=[N+]2C1=Cc1c(C)cc(/C=C/c3cc4c5c(c3)CCCN5CCC4)n1[B-]2(F)C(F)(F)F (stereo not drawn) [Compound 12] | helped oxygenate Aβ1-42 under the light irradiation | Aβ1-42 oxygenation (oxygen adducts by MALDI-TOF MS) ([4]; compound 20 μM, Aβ1-42 20 μM, pH 7.4, 37° C., LED 595 nm, FIG. 4): there appeared ion peaks indicating the presence of oxygen adducts in a time-dependent manner; rate of oxygenation of Aβ1-42 [4]: significantly faster |
|  |  |  |  |  |  | Cc1cc2nc3c(=O)[nH]c(=O)nc-3n(C[C@H](O)[C@H](O)[C@H](O)CO)c2cc1C [riboflavin] |  | oxygenation of the other (non-amyloid) peptides [5]: a certain oxygenation activity on all the peptides; oxygenation activity toward Aβ1-42 [6]: a certain oxygenation activity on all the peptides |
